Experimental data published in paper doi:10.1101/2024.08.25.609621 (bioRxiv, 2024).
“And” between values parts separate entries of the source, which are not always exact repeats. Identical values can stand only once. Like-named read-outs stand apart in the source and are kept apart here.

What was measured:
human macrodomain Targ1 = target: T1, human macrodomain Targ1 (Homo sapiens, UniProt Q9Y530); assay: HTRF peptide displacement assay, Targ1; assay type: binding; details: HTRF dose-response fit, Targ1
T1 sequence (Q9Y530 with tags, fused parts or gaps): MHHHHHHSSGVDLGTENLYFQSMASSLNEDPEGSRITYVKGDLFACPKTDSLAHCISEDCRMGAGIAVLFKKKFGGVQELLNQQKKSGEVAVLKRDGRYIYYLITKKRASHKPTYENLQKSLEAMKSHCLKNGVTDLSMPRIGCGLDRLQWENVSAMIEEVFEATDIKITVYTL

Microsomal stability = assay type: in vitro ADME, mouse; details: mouse microsome stability
Method: The assay was carried out in 96-well plates at 37°C. Reaction mixtures (25 μl) contained a final concentration of 1 μM compound, 0.5 mg/ml liver microsomes protein, and 1 mM NADPH and/or 1 mM UDPGA (with alamethicin) in 100 mM potassium phosphate (pH 7.4) with 3 mM MgCl2. After 0, 15, 30, and 60 minutes, 150 μl of quench solution (100% acetonitrile with 0.1% formic acid) with internal standard was transferred to each well. Reactions containing the same components except the NADPH were prepared as the negative control. Plates were sealed, vortexed, and centrifuged at 4°C for 15 minutes at 4000 rpm.
The extent of metabolism was calculated as the disappearance of compounds, compared to the 0-min time incubation.

[1] = target: SARS-CoV-2 NSP3 macrodomain (Mac1), P43 crystal form (Severe acute respiratory syndrome coronavirus 2, UniProt P0DTD1); assay type: binding; details: for PanDDA run, DMSO background map: 1-BDC: event 1; for 1-BDC: PanDDA background density correction; for Total number of conformations: ligand conformations modeled in Mac1 crystal structure; for 2*(1-BDC) (%): occupancy estimate from PanDDA BDC; for X-ray crystallography: Binding site: site where the ligand is bound in the X-ray crystal structure
[2] = target: SARS-CoV-2 NSP3 macrodomain (Mac1) (Severe acute respiratory syndrome coronavirus 2, UniProt P0DTD1); assay: biochemical; assay type: binding; details: for SARS CoV-2 macrodomain HTRF assay: Hillslope: dose-response fit; for IC50: read-out: SARS CoV-2 macrodomain HTRF assay: IC50
[3] = crystal soak concentration 10 mM, DMSO background map
[4] = crystal soak concentration 10 mM, P43 crystals
[5] = crystal soak 10 mM, DMSO background map

Nc1ncnc2c1ncn2[C@@H]1O[C@H](COP(=O)(O)OP(=O)(O)OC[C@H]2O[C@@H](O)[C@H](O)[C@@H]2O)[C@@H](O)[C@H]1O.[Na].[Na] [ADP-ribose, reference compound]
Hill slope (human macrodomain Targ1): 1.5

CC(C)[C@H](CO)Nc1ncnc2[nH]ccc12 [AVI-1504, (2R)-3-Methyl-2-({7H-pyrrolo[2,3-d]pyrimidin-4-yl}amino)butan-1-ol]
CLint (mouse) (µl/min/mg protein), mean (Microsomal stability): <11.6 µl/min/mg protein

OC1(CNc2ncnc3[nH]ccc23)CC2CCC1CC2 (stereo not drawn) [AVI-4320]
Occupancy difference (refined_occupancy - 2*(1-BDC)) [1]: 0 | Refined ligand occupancy (%) [1]: 28% | PanDDA run, DMSO background map: 1-BDC ([1]; DMSO background map): 0.14 | 1-BDC [1]: 0.14 | Total number of conformations [1]: 1 | 2*(1-BDC) (%) [1]: 28% | X-ray crystallography: Binding site [1]: Adenosine | Hill slope ([2]; HTRF dose-response fit, Mac1): 1.1 | SARS CoV-2 macrodomain HTRF assay: Hillslope [2]: 1.1

OC1(CNc2ncnc3[nH]ccc23)CCCSC1 (stereo not drawn) [AVI-4322]
Occupancy difference (refined_occupancy - 2*(1-BDC)) [1]: 0 | Refined ligand occupancy (%) [1]: 42% | PanDDA run, DMSO background map: 1-BDC ([1]; DMSO background map): 0.21 | 1-BDC [1]: 0.21 | Total number of conformations [1]: 1 | 2*(1-BDC) (%) [1]: 42% | X-ray crystallography: Binding site [1]: Adenosine | Hill slope ([2]; HTRF dose-response fit, Mac1): 1.3 | SARS CoV-2 macrodomain HTRF assay: Hillslope [2]: 1.3

Cc1c[nH]c2ncnc(NCC3(O)CCC(O)CC3)c12 (stereo not drawn) [AVI-4329]
Occupancy difference (refined_occupancy - 2*(1-BDC)) [1]: 12 | Refined ligand occupancy (%) [1]: 30% | 1-BDC [1]: 0.09 | PanDDA run, DMSO background map: 1-BDC [1, 3]: 0.09 and 0.11 | Pandda run, overall: Hit [1, 4]: TRUE | Pandda run, overall: Modeled [1, 4]: TRUE | Pandda run, overall: Modeling comment [1, 4]: Duplicate, not modeled | PanDDA run, DMSO background map: Hit [1, 3]: TRUE | PanDDA run, DMSO background map: Modeled [1, 3]: TRUE | Total number of conformations [1]: 2 | 2*(1-BDC) (%) [1]: 18% | X-ray crystallography: Binding site [1]: Adenosine | IC50 ([2]; dose-response): > 1000 µM

Cc1c[nH]c2ncnc(NCC3(O)CCC(C)(C)CC3)c12 [AVI-4330]
PanDDA run, DMSO background map: 1-BDC [1, 3]: 0.11 | Pandda run, overall: Hit [1, 4]: TRUE | Pandda run, overall: Modeling comment [1, 4]: Weak density, not modeled | PanDDA run, DMSO background map: Hit [1, 3]: TRUE | Hill slope ([2]; HTRF dose-response fit, Mac1): 1.3 | SARS CoV-2 macrodomain HTRF assay: Hillslope [2]: 1.3

Cc1c[nH]c2ncnc(NCC3(O)CCC(C)CC3)c12 (stereo not drawn) [AVI-4331]
Occupancy difference (refined_occupancy - 2*(1-BDC)) [1]: 0 | Refined ligand occupancy (%) [1]: 54% | 1-BDC [1]: 0.27 | Pandda run, overall: Hit ([1]; crystal soak 10 mM, P43 crystals, TRUE = ligand identified by PanDDA): TRUE | PanDDA run, DMSO background map: Hit [1, 5]: TRUE | PanDDA run, DMSO background map: 1-BDC [1, 5]: 0.27 | PanDDA run, DMSO background map: 1-BDC [1, 3]: 0.23 | Pandda run, overall: Hit [1, 4]: TRUE | Pandda run, overall: Modeling comment [1, 4]: Duplicate, not modeled | PanDDA run, DMSO background map: Hit [1, 3]: TRUE | Total number of conformations [1]: 1 | 2*(1-BDC) (%) [1]: 54% | X-ray crystallography: Binding site [1]: Adenosine | Hill slope ([2]; HTRF dose-response fit, Mac1): 1.2 | SARS CoV-2 macrodomain HTRF assay: Hillslope [2]: 1.2

CC(C)(CO)Nc1ncnc2[nH]ccc12 [AVI-5266]
Occupancy difference (refined_occupancy - 2*(1-BDC)) [1]: 16 | Refined ligand occupancy (%) [1]: 40% | PanDDA run, DMSO background map: 1-BDC ([1]; DMSO background map): 0.12 | 1-BDC [1]: 0.12 | X-ray crystal structure ([1]; X-ray crystal structure determined (TRUE)): TRUE | Total number of conformations [1]: 1 | 2*(1-BDC) (%) [1]: 24% | Binding site ([1]; site of ligand in X-ray crystal structure): Adenosine | Hill slope ([2]; HTRF dose-response fit, Mac1): 1.1 | Hill slope ([2]; SARS CoV-2 macrodomain HTRF assay, dose-response): 1.1 | inhibition at 200 µM ([2]; Single dose, concentration 200 μM, read-out: Average % competition): 56% | inhibition at 200 µM ([2]; preliminary screen, compound at 200 μM, mean of 3-4 technical replicates, read-out: % competition in HTRF assay): 56%

CC1(C)CCN(c2ncnc3[nH]ccc23)C(CO)C1 (stereo not drawn) [AVI-5994]
Occupancy difference (refined_occupancy - 2*(1-BDC)) [1]: 0 | Refined ligand occupancy (%) [1]: 46% | PanDDA run, DMSO background map: 1-BDC ([1]; DMSO background map): 0.23 and 0.27 | 1-BDC [1]: 0.23 | Comment ([1]; comment on ligand modeling / Phe132 loop density): Weak density for open state of Phe132 loop | Total number of conformations [1]: 2 | 2*(1-BDC) (%) [1]: 46% | X-ray crystallography: Binding site [1]: Adenosine | Hill slope ([2]; HTRF dose-response fit, Mac1): 1.2 | SARS CoV-2 macrodomain HTRF assay: Hillslope [2]: 1.2

O[C@H]1CC[C@H]2CCN(c3ncnc4[nH]ccc34)[C@H]21 [AVI-5997]
Occupancy difference (refined_occupancy - 2*(1-BDC)) [1]: 12 | Refined ligand occupancy (%) [1]: 70% | PanDDA run, DMSO background map: 1-BDC ([1]; DMSO background map): 0.28 and 0.29 | 1-BDC [1]: 0.29 | Total number of conformations [1]: 1 | 2*(1-BDC) (%) [1]: 58% | X-ray crystallography: Binding site [1]: Adenosine | Hill slope ([2]; HTRF dose-response fit, Mac1): 1.2 | SARS CoV-2 macrodomain HTRF assay: Hillslope [2]: 1.2

OCC1C=CCCN1c1ncnc2[nH]ccc12 (stereo not drawn) [AVI-5998]
Occupancy difference (refined_occupancy - 2*(1-BDC)) [1]: 0 | Refined ligand occupancy (%) [1]: 38% | PanDDA run, DMSO background map: 1-BDC ([1]; DMSO background map): 0.21 and 0.19 | 1-BDC [1]: 0.19 | Total number of conformations [1]: 1 | 2*(1-BDC) (%) [1]: 38% | X-ray crystallography: Binding site [1]: Adenosine | Hill slope ([2]; HTRF dose-response fit, Mac1): 1.2 | SARS CoV-2 macrodomain HTRF assay: Hillslope [2]: 1.2

CC(C)(C)C1CCCN1c1ncnc2[nH]ccc12 (stereo not drawn) [AVI-6000]
Occupancy difference (refined_occupancy - 2*(1-BDC)) [1]: 0 | Refined ligand occupancy (%) [1]: 14% | PanDDA run, DMSO background map: 1-BDC ([1]; DMSO background map): 0.07 | 1-BDC [1]: 0.07 | Total number of conformations [1]: 1 | 2*(1-BDC) (%) [1]: 14% | X-ray crystallography: Binding site [1]: Adenosine | IC50 ([2]; dose-response): > 1000 µM

OCC1CC=CCN1c1ncnc2[nH]ccc12 (stereo not drawn) [AVI-6002]
Occupancy difference (refined_occupancy - 2*(1-BDC)) [1]: 18 | Refined ligand occupancy (%) [1]: 50% | PanDDA run, DMSO background map: 1-BDC ([1]; DMSO background map): 0.21 and 0.16 | 1-BDC [1]: 0.16 | Total number of conformations [1]: 1 | 2*(1-BDC) (%) [1]: 32% | X-ray crystallography: Binding site [1]: Adenosine | Hill slope ([2]; HTRF dose-response fit, Mac1): 1.3 | SARS CoV-2 macrodomain HTRF assay: Hillslope [2]: 1.3

OC1(CNc2ncnc3[nH]ccc23)CCCCC1 [AVI-6217]
Occupancy difference (refined_occupancy - 2*(1-BDC)) [1]: 16 | Refined ligand occupancy (%) [1]: 60% | PanDDA run, DMSO background map: 1-BDC ([1]; DMSO background map): 0.22 | 1-BDC [1]: 0.22 | Total number of conformations [1]: 1 | 2*(1-BDC) (%) [1]: 44% | X-ray crystallography: Binding site [1]: Adenosine | Hill slope ([2]; HTRF dose-response fit, Mac1): 1.1 | SARS CoV-2 macrodomain HTRF assay: Hillslope [2]: 1.1

OC1CCC(O)(CNc2ncnc3[nH]ccc23)CC1 (stereo not drawn) [AVI-6220]
Occupancy difference (refined_occupancy - 2*(1-BDC)) [1]: 0 | Refined ligand occupancy (%) [1]: 14% | PanDDA run, DMSO background map: 1-BDC ([1]; DMSO background map): 0.07 | 1-BDC [1]: 0.07 | Total number of conformations [1]: 2 | 2*(1-BDC) (%) [1]: 14% | X-ray crystallography: Binding site [1]: Adenosine | Hill slope ([2]; HTRF dose-response fit, Mac1): 1.3 | SARS CoV-2 macrodomain HTRF assay: Hillslope [2]: 1.3
